pKi: −log10 of the molar value. Like-named read-outs stand apart in the source and are kept apart here.

For assay [1], the target named is T1, human CB2 receptors (Homo sapiens, UniProt P34972).
T1 construct: expressed in transfected cells; host or cells: HEK293
In words: Human CB2 radioligand binding assay ([3H]CP-55,940 competition). The method, then:
The CB1 and CB2 radioligand binding assays described herein are utilized to determine the selectivity of compounds of the present invention for binding to CB2 relative to CB1 receptors.
(§1) HEK293 cells stably expressing human CB2 receptors were grown until a confluent monolayer was formed. Briefly, the cells were harvested and homogenized in TE buffer (50 mM Tris-HCl, 1 mM MgCl2, and 1 mM EDTA) using a polytron for 2×10 second bursts in the presence of protease inhibitors, followed by centrifugation at 45,000×g for 20 minutes. The final membrane pellet was re-homogenized in storage buffer (50 mM Tris-HCl, 1 mM MgCl2, and 1 mM EDTA and 10% sucrose) and frozen at −78° C. until used. Saturation binding reactions were initiated by the addition of membrane preparation (protein concentration of 5 μg/well for human CB2) into wells of a deep well plate containing ([^3H]CP-55,940 (120 Ci/mmol, a nonselective CB agonist commercially available from Tocris) in assay buffer (50 mM Tris, 2.5 mM EDTA, 5 mM MgCl2, and 0.5 mg/mL fatty acid free BSA, pH 7.4). After 90 min incubation at 30° C., binding reaction was terminated by the addition of 300 μL/well of cold assay buffer followed by rapid vacuum filtration through a UniFilter-96 GF/C filter plates (pre-soaked in 1 mg/mL BSA for 2 hours). The bound activity was counted in a TopCount using Microscint-20. Saturation experiments were conducted with twelve concentrations of [^3H]CP-55,940 ranging from 0.01 to 8 nM. Competition experiments were conducted with 0.5 nM [^3H]CP-55,940 and five concentrations of displacing ligands selected from the range of 0.01 nM to 10 μM. The addition of 10 μM unlabeled CP-55,940 (Tocris, Ellisville, Mo.) was used to assess nonspecific binding.

Assay [2] has as its target T2, rat CB2 receptors (Rattus norvegicus, UniProt Q9QZN9).
T2 construct: expressed in transfected cells; host or cells: HEK293
T2 sequence (Q9QZN9 1-360): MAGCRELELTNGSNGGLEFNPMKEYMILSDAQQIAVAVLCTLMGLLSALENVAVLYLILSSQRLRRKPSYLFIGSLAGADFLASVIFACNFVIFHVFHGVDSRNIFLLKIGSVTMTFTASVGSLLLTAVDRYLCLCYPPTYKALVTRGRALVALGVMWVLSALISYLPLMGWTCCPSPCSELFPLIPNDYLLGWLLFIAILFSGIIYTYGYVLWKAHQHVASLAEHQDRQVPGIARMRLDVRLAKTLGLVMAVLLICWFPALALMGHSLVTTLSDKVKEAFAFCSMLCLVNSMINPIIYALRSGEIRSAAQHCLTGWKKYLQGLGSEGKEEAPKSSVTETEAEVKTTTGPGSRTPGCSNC
In words: Rat CB2 radioligand binding assay ([3H]CP-55,940 competition). The method, then: as §1, with “expressing rat” for “expressing human”, “of 20” for “of 5”, “for rat” for “for human”, “containing [^3H]CP-55,940” for “containing ([^3H]CP-55,940”, “After 45” for “After 90”, “[…]” for “10 μM.”

T1 sequence (P34972 whole entry): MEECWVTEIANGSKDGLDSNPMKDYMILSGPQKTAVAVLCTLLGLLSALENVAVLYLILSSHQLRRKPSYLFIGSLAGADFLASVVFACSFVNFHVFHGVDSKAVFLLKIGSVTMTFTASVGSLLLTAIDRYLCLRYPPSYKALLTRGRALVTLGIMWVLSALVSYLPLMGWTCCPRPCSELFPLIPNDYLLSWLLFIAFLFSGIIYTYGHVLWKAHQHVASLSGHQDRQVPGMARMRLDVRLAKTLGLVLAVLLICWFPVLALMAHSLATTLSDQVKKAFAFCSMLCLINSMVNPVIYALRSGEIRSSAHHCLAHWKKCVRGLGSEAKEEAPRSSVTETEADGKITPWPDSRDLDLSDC

On to `CC(C)[C@@H](CO)NC(=O)/N=c1\sc(C(C)(C)C)nn1C[C@H]1CCCO1` [Example 84, N-[(2Z)-5-tert-butyl-3-[(2R)-tetrahydrofuran-2-ylmethyl]-1,3,4-thiadiazol-2(3 H)-ylidene]-N′-[(1S)-1-(hydroxymethyl)-2-methylpropyl]urea], for which the pKi in assay [1] was 6.70; in assay [2] it was 7.14.

As for `COc1ccc(C(F)(F)F)cc1C(=O)/N=c1\cc(C(C)(C)C)n(C)n1CC1CCCCO1` (stereo not shown) [Example 63, N-[(3E)-5-tert-butyl-1-methyl-2-(tetrahydro-2H-pyran-2-ylmethyl)-1,2-dihydro-3H-pyrazol-3-ylidene]-2-methoxy-5-(trifluoromethyl)benzamide], the figures for the pKi in assay [1] and in assay [2] were 7.44 and 7.70, respectively.

As to `Cn1c(C(C)(C)C)c/c(=N\C(=O)c2cccc(S(F)(F)(F)(F)F)c2)n1C[C@H]1CCCO1` [Example 15, N-{(3E)-5-tert-butyl-1-methyl-2-[(2R)-tetrahydrofuran-2-ylmethyl]-1,2-dihydro-3H-pyrazol-3-ylidene}-3-(pentafluoro-lambda˜6˜sulfanyl)benzamide], the pKi was 8.55 in assay [1] and 8.92 in assay [2].

Take `Cn1c(C(C)(C)C)c/c(=N\C(=O)c2cc(C(F)(F)F)ccc2OCCC2(O)CCCC2)n1C[C@H]1CCCO1` [Example 94, N-{(3E)-5-tert-butyl-1-methyl-2-[(2R)-tetrahydrofuran-2-ylmethyl]-1,2-dihydro-3H-pyrazol-3-ylidene}-2-[2-(1-hydroxycyclopentyl)ethoxy]-5-(trifluoromethyl)benzamide]: the figures for the pKi in assay [1] and in assay [2] were 8.59 and 8.48, respectively.

Regarding `Cn1c(C(C)(C)C)c/c(=N\C(=O)c2cc(C(F)(F)F)ccc2OCC2CC(=NO)C2)n1C[C@H]1CCCO1` (stereo partly drawn) [Example 119, N-{(3E)-5-tert-butyl-1-methyl-2-[(2R)-tetrahydrofuran-2-ylmethyl]-1,2-dihydro-3H-pyrazol-3-ylidene}-2-{[3-(hydroxyimino)cyclobutyl]methoxy}-5-(trifluoromethyl)benzamide], the pKi in assay [1] was 7.15; in assay [2], 7.60.

For the compound `CCOc1ccc(C(F)(F)F)cc1C(=O)/N=c1\cc(C(C)(C)C)n(C)n1C[C@H]1CCCO1` [Example 14, N-{(3E)-5-tert-butyl-1-methyl-2-[(2R)-tetrahydrofuran-2-ylmethyl]-1,2-dihydro-3H-pyrazol-3-ylidene}-2-ethoxy-5-(trifluoromethyl)benzamide], the values for the pKi in assay [1] and in assay [2] were 7.46 and 7.62, respectively.

On to `COc1ccc(Cl)cc1C(=O)/N=c1\sc(C2(C)CC(F)(F)C2(F)F)nn1C[C@H]1CCCO1` (stereo partly shown) [Example 7, 5-chloro-2-methoxy-N-[(2Z)-5-(2,2,3,3-tetrafluoro-1-methylcyclobutyl)-3-[(2 R)-tetrahydrofuran-2-ylmethyl]-1,3,4-thiadiazol-2(3H)-ylidene]benzamide], for which the pKi in assay [1] was 7.42; in assay [2], 8.80.

Consider `C/C=C/c1ccc(C(F)(F)F)cc1C(=O)/N=c1\cc(C(C)(C)C)n(C)n1C[C@H]1CCCO1` [Example 99, N-{(3E)-5-tert-butyl-1-methyl-2-[(2R)-tetrahydrofuran-2-ylmethyl]-1,2-dihydro-3H-pyrazol-3-ylidene}-2-[(1E)-prop-1-enyl]-5-(trifluoromethyl)benazmide], for which the pKi in assay [1] is 7.92; in assay [2], 8.46.

In the case of `COc1ccc(C(F)(F)F)cc1C(=O)/N=c1\cc(C(C)(C)C)n(C)n1CC1CC[C@H](C)O1` (stereo partly shown) [Example 65, N-((3E)-5-tert-butyl-1-methyl-2-{[(55)-5-methyltetrahydrofuran-2-yl]methyl}-1,2-dihydro-3H-pyrazol-3-ylidene)-2-methoxy-5-(trifluoromethyl)benzamide], the pKi in assay [1] is 7.19; in assay [2] it was 8.24.

Take `Cn1c(C(C)(C)C)c/c(=N\C(=O)c2cc(Br)ccc2F)n1C[C@H]1CCCO1` [Example 132, 5-bromo-N-{(3E)-5-tert-butyl-1-methyl-2-[(2R)-tetrahydrofuran-2-ylmethyl]-1,2-dihydro-3H-pyrazol-3-ylidene}-2-fluorobenzamide]: the negative-log Ki (pKi) is 7.82 in assay [1] and 8.15 in assay [2].

Regarding `Cn1c(C(C)(C)C)c/c(=N\C(=O)c2cc(O)cc(C(F)(F)F)c2)n1C[C@H]1CCCO1` [Example 103, N-{(3E)-5-tert-butyl-1-methyl-2-[(2R)-tetrahydrofuran-2-ylmethyl]-1,2-dihydro-3H-pyrazol-3-ylidene}-3-hydroxy-5-(trifluoromethyl)benzamide], the pKi in assay [1] was 7.80; in assay [2], 8.36.

On to `Cn1c(C(C)(C)C)c/c(=N\C(=O)c2cc(C(F)(F)F)cc(Cl)c2F)n1C[C@H]1CCCO1` [Example 52, N-{(3E)-5-tert-butyl-1-methyl-2-[(2R)-tetrahydrofuran-2-ylmethyl]-1,2-dihydro-3H-pyrazol-3-ylidene}-3-chloro-2-fluoro-5-(trifluoromethyl)benzamide], for which the pKi was 8.18 in assay [1] and 8.89 in assay [2].

As for `Cn1c(C(C)(C)C)c/c(=N\C(=O)c2cc(F)cc(C(F)(F)F)c2)n1C[C@H]1CCCO1` [Example 96, N-{(3E)-5-tert-butyl-1-methyl-2-[(2R)-tetrahydrofuran-2-ylmethyl]-1,2-dihydro-3H-pyrazol-3-ylidene}-3-fluoro-5-(trifluoromethyl)benzamide], the results for the pKi in assay [1] and in assay [2] were 7.89 and 8.43, respectively.

Turning to `COc1ccc(Cl)cc1C(=O)/N=c1\sc(C2(C(F)(F)F)CC2)nn1C[C@H]1CCCO1` [Example 1, 5-chloro-2-methoxy-N-[(2Z)-3-[(2R)-tetrahydrofuran-2-ylmethyl]-5-[1-(trifluoromethyl)cyclopropyl]-1,3,4-thiadiazol-2(3H)-ylidene]benzamide], the pKi in assay [1] was 7.29; in assay [2], 8.54.

As to `CNC(=O)[C@@H](NC(=O)/N=c1\sc(C(C)(C)C)nn1C[C@H]1CCCO1)C(C)(C)C` [Example 82, N^2-({[(2Z)-5-tert-butyl-3-[(2R)-tetrahydrofuran-2-ylmethyl]-1,3,4-thiadiazol-2(3H)-ylidene]amino}carbonyl)-N^1,3-dimethyl-L-valinamide], the pKi in assay [1] is 8.42; in assay [2], 8.00.

Regarding `COCCCOc1ccc(C(F)(F)F)cc1C(=O)/N=c1\cc(C(C)(C)C)n(C)n1C[C@H]1CCCO1` [Example 30, N-{(3E)-5-tert-butyl-1-methyl-2-[(2R)-tetrahydrofuran-2-ylmethyl]-1,2-dihydro-3H-pyrazol-3-ylidene}-2-(3-methoxypropoxy)-5-(trifluoromethyl)benzamide], the values for the pKi in assay [1] and in assay [2] were 8.42 and 7.96, respectively.

On to `Cn1c(C(C)(C)C)c/c(=N\C(=O)c2cc(C(F)(F)F)ccc2O)n1C[C@H]1CCCO1` [Example 24, N-{(3E)-5-tert-butyl-1-methyl-2-[(2R)-tetrahydrofuran-2-ylmethyl]-1,2-dihydro-3H-pyrazol-3-ylidene}-2-hydroxy-5-(trifluoromethyl)benzamide], for which the pKi in assay [1] (HEK293 membranes, 0.5 nM [3H]CP-55,940, read-out: human CB2 Ki) is 6.59; in assay [2], 7.54.

Values taken from US8492371B2, “Compounds as cannabinoid receptor ligands” (priority 2009, dated 2013).
